Laboratory results from patent US9642831B2, “Substituted chromanes and method of use” (AbbVie S.á.r.l., priority 2014, dated 2017).

Target: F508delCFTR (Homo sapiens, UniProt P13569, DEL508-508)
Test: Cell Surface Expression-Horse Radish Peroxidase (CSE-HRP) assay
Format: cell-based
Design: expressed in transfected cells; host or cells: CFBE41o- human lung derived epithelial cell line, doxycycline-inducible
Conditions: CFBE4lo-F508delCFTR-HRP cells; for EC50: 18-24 hours at 33° C., 8-point curve, highest concentration 20 μM, luminescence readout
Outline: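 Following 18-24 h compound exposure at 33° C. Expression was doxycycline-induced beforehand. % activity versus DMSO and a 3 μM corrector control gave maximum activity and EC50 from a variable-Hill sigmoidal fit.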

[1] = maximum % activity at any tested concentration, normalized to on-plate positive control (3 μM Example 1)

Sequence of F508delCFTR (P13569 with tags, fused parts or gaps DEL508-508): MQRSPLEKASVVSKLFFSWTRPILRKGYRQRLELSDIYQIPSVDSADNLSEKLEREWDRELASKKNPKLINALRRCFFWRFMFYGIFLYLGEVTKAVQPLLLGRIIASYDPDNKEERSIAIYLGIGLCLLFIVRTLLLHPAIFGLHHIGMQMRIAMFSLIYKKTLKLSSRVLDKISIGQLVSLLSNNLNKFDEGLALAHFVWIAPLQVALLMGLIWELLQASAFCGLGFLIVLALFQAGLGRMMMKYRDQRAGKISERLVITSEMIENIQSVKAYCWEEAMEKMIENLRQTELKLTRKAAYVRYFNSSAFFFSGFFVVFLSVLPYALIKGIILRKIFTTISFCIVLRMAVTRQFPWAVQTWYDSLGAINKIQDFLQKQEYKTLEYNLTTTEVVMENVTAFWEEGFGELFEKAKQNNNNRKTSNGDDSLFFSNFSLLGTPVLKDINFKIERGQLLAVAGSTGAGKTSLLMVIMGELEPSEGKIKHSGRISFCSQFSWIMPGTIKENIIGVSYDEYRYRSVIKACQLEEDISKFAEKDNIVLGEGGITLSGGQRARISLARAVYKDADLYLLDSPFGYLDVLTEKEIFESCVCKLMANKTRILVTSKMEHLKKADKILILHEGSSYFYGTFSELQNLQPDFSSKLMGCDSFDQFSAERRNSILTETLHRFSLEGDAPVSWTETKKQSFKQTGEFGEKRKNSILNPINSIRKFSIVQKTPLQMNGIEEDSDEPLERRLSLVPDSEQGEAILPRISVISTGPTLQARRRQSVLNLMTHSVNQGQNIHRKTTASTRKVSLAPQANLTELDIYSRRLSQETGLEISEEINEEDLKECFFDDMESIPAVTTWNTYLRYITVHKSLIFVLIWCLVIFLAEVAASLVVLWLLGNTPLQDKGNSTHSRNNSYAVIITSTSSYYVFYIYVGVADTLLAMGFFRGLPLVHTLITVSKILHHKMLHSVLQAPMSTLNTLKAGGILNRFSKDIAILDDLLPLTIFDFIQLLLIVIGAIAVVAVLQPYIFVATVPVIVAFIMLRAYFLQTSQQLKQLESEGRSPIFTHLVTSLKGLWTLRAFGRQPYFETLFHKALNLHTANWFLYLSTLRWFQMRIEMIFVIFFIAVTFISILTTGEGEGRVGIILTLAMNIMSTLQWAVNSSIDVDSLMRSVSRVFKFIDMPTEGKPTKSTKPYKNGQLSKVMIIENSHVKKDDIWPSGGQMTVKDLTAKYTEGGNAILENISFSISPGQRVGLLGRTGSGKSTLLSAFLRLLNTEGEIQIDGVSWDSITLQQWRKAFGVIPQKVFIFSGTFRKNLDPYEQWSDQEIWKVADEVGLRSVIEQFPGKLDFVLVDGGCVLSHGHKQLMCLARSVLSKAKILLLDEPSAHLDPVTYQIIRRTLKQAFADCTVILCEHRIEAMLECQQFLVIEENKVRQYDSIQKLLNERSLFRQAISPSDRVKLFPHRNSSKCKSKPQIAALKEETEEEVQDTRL

Row | Structure (SMILES) | EC50 [nM] | Emax [1] [%] | Maximum % activity (%) [1] [%]
1 | COc1ccc2c(c1)O[C@@H](C(=O)N(CCO)Cc1ccccc1)C[C@@H]2NC(=O)C1(c2ccc3c(c2)OC(F)(F)O3)CC1 (racemic) [Example 184, rac-(2R,4S)—N-benzyl-4-({[1-(2,2-difluoro-1,3-benzodioxol-5-yl)cyclopropyl]carbonyl}amino)-N-(2-hydroxyethyl)-7-methoxy-3,4-dihydro-2H-chromene-2-carboxamide] | 580 | 73 | 
2 | COc1ccc2c(c1)O[C@@H](C(=O)N(C)CC(O)c1ccccc1)C[C@@H]2NC(=O)C1(c2ccc3c(c2)OC(F)(F)O3)CC1 (mixture of isomers) [Example 185, rac-(2R,4S)-4-({[1-(2,2-difluoro-1,3-benzodioxol-5-yl)cyclopropyl]carbonyl}amino)-N-(2-hydroxy-2-phenylethyl)-7-methoxy-N-methyl-3,4-dihydro-2H-chromene-2-carboxamide] | 640 | 77 | 
3 | COc1ccc2c(c1)O[C@@H](C(=O)N1CCC(O)CC1)C[C@@H]2NC(=O)C1(c2ccc3c(c2)OC(F)(F)O3)CC1 (racemic) [Example 186, rac-1-(2,2-difluoro-1,3-benzodioxol-5-yl)-N-{(2R,4S)-2-[(4-hydroxypiperidin-1-yl)carbonyl]-7-methoxy-3,4-dihydro-2H-chromen-4-yl}cyclopropanecarboxamide] | 1360 | 66 | 
4 | COc1ccc2c(c1)O[C@@H](C(=O)N1CCN(CCO)CC1)C[C@@H]2NC(=O)C1(c2ccc3c(c2)OC(F)(F)O3)CC1 (racemic) [Example 187, rac-1-(2,2-difluoro-1,3-benzodioxol-5-yl)-N-[(2R,4S)-2-{[4-(2-hydroxyethyl)piperazin-1-yl]carbonyl}-7-methoxy-3,4-dihydro-2H-chromen-4-yl]cyclopropanecarboxamide] | 1950 | 76 | 
5 | COc1ccc2c(c1)O[C@@H](C(=O)NCC(C)(C)O)C[C@@H]2NC(=O)C1(c2ccc3c(c2)OC(F)(F)O3)CC1 (racemic) [Example 188, rac-(2R,4S)-4-({[1-(2,2-difluoro-1,3-benzodioxol-5-yl)cyclopropyl]carbonyl}amino)-N-(2-hydroxy-2-methylpropyl)-7-methoxy-3,4-dihydro-2H-chromene-2-carboxamide] | 4650 | 43 | 
6 | COc1ccc2c(c1)O[C@@H](C(=O)NC(C)(C)CO)C[C@@H]2NC(=O)C1(c2ccc3c(c2)OC(F)(F)O3)CC1 (racemic) [Example 189, rac-(2R,4S)-4-({[1-(2,2-difluoro-1,3-benzodioxol-5-yl)cyclopropyl]carbonyl}amino)-N-(1-hydroxy-2-methylpropan-2-yl)-7-methoxy-3,4-dihydro-2H-chromene-2-carboxamide] | 3830 | 58 | 
7 | COc1ccc2c(c1)O[C@@H](C(=O)NC(CO)c1ccccc1)C[C@@H]2NC(=O)C1(c2ccc3c(c2)OC(F)(F)O3)CC1 (mixture of isomers) [Example 190, rac-(2R,4S)-4-({[1-(2,2-difluoro-1,3-benzodioxol-5-yl)cyclopropyl]carbonyl}amino)-N-(2-hydroxy-1-phenylethyl)-7-methoxy-3,4-dihydro-2H-chromene-2-carboxamide] | 2790 | 39 | 
8 | COc1ccc2c(c1)O[C@@H](C(=O)NC1CCS(=O)(=O)CC1)C[C@@H]2NC(=O)C1(c2ccc3c(c2)OC(F)(F)O3)CC1 (racemic) [Example 191, rac-(2R,4S)-4-({[1-(2,2-difluoro-1,3-benzodioxol-5-yl)cyclopropyl]carbonyl}amino)-N-(1,1-dioxidotetrahydro-2H-thiopyran-4-yl)-7-methoxy-3,4-dihydro-2H-chromene-2-carboxamide] | 4100 | 51 | 
9 | COc1ccc2c(c1)O[C@@H](C(=O)NC1(C(F)(F)F)COC1)C[C@@H]2NC(=O)C1(c2ccc3c(c2)OC(F)(F)O3)CC1 (racemic) [Example 192, rac-(2R,4S)-4-({[1-(2,2-difluoro-1,3-benzodioxol-5-yl)cyclopropyl]carbonyl}amino)-7-methoxy-N-[3-(trifluoromethyl)oxetan-3-yl]-3,4-dihydro-2H-chromene-2-carboxamide] | 4400 | 29 | 
10 | COc1ccc2c(c1)O[C@@H](C(=O)N1CCC(F)(F)CC1)C[C@@H]2NC(=O)C1(c2ccc3c(c2)OC(F)(F)O3)CC1 (racemic) [Example 193, rac-1-(2,2-difluoro-1,3-benzodioxol-5-yl)-N-{(2R,4S)-2-[(4,4-difluoropiperidin-1-yl)carbonyl]-7-methoxy-3,4-dihydro-2H-chromen-4-yl}cyclopropanecarboxamide] | 470 | 68 | 
11 | COc1ccc2c(c1)O[C@@H](C(=O)N1CCCOCC1)C[C@@H]2NC(=O)C1(c2ccc3c(c2)OC(F)(F)O3)CC1 (racemic) [Example 194, rac-1-(2,2-difluoro-1,3-benzodioxol-5-yl)-N-[(2R,4S)-7-methoxy-2-(1,4-oxazepan-4-ylcarbonyl)-3,4-dihydro-2H-chromen-4-yl]cyclopropanecarboxamide] | 880 | 68 | 
12 | CCOC(=O)c1csc([C@H]2C[C@H](NC(=O)C3(c4ccc5c(c4)OC(F)(F)O5)CC3)c3ccccc3O2)n1 (relative stereo) [Example 141, ethyl rel-2-[(2R,4S)-4-({[1-(2,2-difluoro-1,3-benzodioxol-5-yl)cyclopropyl]carbonyl}amino)-3,4-dihydro-2H-chromen-2-yl]-1,3-thiazole-4-carboxylate] | 3050 | 54 | 
13 | O=C(O)c1csc([C@H]2C[C@H](NC(=O)C3(c4ccc5c(c4)OC(F)(F)O5)CC3)c3ccccc3O2)n1 (relative stereo) [Example 144, rel-2-[(2R,4S)-4-({[1-(2,2-difluoro-1,3-benzodioxol-5-yl)cyclopropyl]carbonyl}amino)-3,4-dihydro-2H-chromen-2-yl]-1,3-thiazole-4-carboxylic acid] | > 20000 | 11 | 
14 | COc1ccc2c(c1)O[C@@H](c1ccc(C(=O)O)cn1)C[C@H]2NC(=O)C1(c2ccc3c(c2)OC(F)(F)O3)CC1 (relative stereo) [Example 165, rel-6-[(2R,4R)-4-({[1-(2,2-difluoro-1,3-benzodioxol-5-yl)cyclopropyl]carbonyl}amino)-7-methoxy-3,4-dihydro-2H-chromen-2-yl]pyridine-3-carboxylic acid] | 90 | 123 | 
15 | O=C(O)c1cnc(C2CC(NC(=O)C3(c4ccc5c(c4)OC(F)(F)O5)CC3)c3ccccc3O2)s1 (single isomer, unassigned) [Example 133] | 7020 |  | 25

Continued, values first:

Row | EC50 [nM] | Emax [1] [%] | Maximum % activity (%) [1] [%] | Structure (SMILES)
16 | 7530 | 37 |  | COc1ccc2c(c1)O[C@@H](C(=O)N(C)C1COC1)C[C@@H]2NC(=O)C1(c2ccc3c(c2)OC(F)(F)O3)CC1 (racemic) [Example 195, rac-(2R,4S)-4-({[1-(2,2-difluoro-1,3-benzodioxol-5-yl)cyclopropyl]carbonyl}amino)-7-methoxy-N-methyl-N-(oxetan-3-yl)-3,4-dihydro-2H-chromene-2-carboxamide]
17 | 1240 | 67 |  | COc1ccc2c(c1)O[C@@H](C(=O)N1CCOCC1)C[C@@H]2NC(=O)C1(c2ccc3c(c2)OC(F)(F)O3)CC1 (racemic) [Example 196, rac-1-(2,2-difluoro-1,3-benzodioxol-5-yl)-N-[(2R,4S)-7-methoxy-2-(morpholin-4-ylcarbonyl)-3,4-dihydro-2H-chromen-4-yl]cyclopropanecarboxamide]
18 | 2100 | 73 |  | COc1ccc2c(c1)O[C@@H](C(=O)NC(CO)c1ccccc1OC)C[C@@H]2NC(=O)C1(c2ccc3c(c2)OC(F)(F)O3)CC1 (mixture of isomers) [Example 197, rac-(2R,4S)-4-({[1-(2,2-difluoro-1,3-benzodioxol-5-yl)cyclopropyl]carbonyl}amino)-N-[2-hydroxy-1-(2-methoxyphenyl)ethyl]-7-methoxy-3,4-dihydro-2H-chromene-2-carboxamide]
19 | 1710 | 67 |  | COc1ccc2c(c1)O[C@@H](C(=O)NCCc1cccc(O)c1)C[C@@H]2NC(=O)C1(c2ccc3c(c2)OC(F)(F)O3)CC1 (racemic) [Example 198, rac-(2R,4S)-4-({[1-(2,2-difluoro-1,3-benzodioxol-5-yl)cyclopropyl]carbonyl}amino)-N-[2-(3-hydroxyphenyl)ethyl]-7-methoxy-3,4-dihydro-2H-chromene-2-carboxamide]
20 | 6890 | 27 |  | COc1ccc2c(c1)O[C@@H](C(=O)NC(CO)CO)C[C@@H]2NC(=O)C1(c2ccc3c(c2)OC(F)(F)O3)CC1 (racemic) [Example 199, rac-(2R,4S)-4-({[1-(2,2-difluoro-1,3-benzodioxol-5-yl)cyclopropyl]carbonyl}amino)-N-(1,3-dihydroxypropan-2-yl)-7-methoxy-3,4-dihydro-2H-chromene-2-carboxamide]
21 | 2350 | 61 |  | COc1ccc2c(c1)O[C@@H](C(=O)NC1c3ccccc3CC1O)C[C@@H]2NC(=O)C1(c2ccc3c(c2)OC(F)(F)O3)CC1 (mixture of isomers) [Example 200, rac-(2R,4S)-4-({[1-(2,2-difluoro-1,3-benzodioxol-5-yl)cyclopropyl]carbonyl}amino)-N-(2-hydroxy-2,3-dihydro-1H-inden-1-yl)-7-methoxy-3,4-dihydro-2H-chromene-2-carboxamide]
22 | 7920 | 35 |  | COc1ccc2c(c1)O[C@@H](C(=O)N1CCC(C(=O)O)C1)C[C@@H]2NC(=O)C1(c2ccc3c(c2)OC(F)(F)O3)CC1 (mixture of isomers) [Example 201, rac-1-{[(2R,4S)-4-({[1-(2,2-difluoro-1,3-benzodioxol-5-yl)cyclopropyl]carbonyl}amino)-7-methoxy-3,4-dihydro-2H-chromen-2-yl]carbonyl}pyrrolidine-3-carboxylic acid]
